Molecules are shown by their SMILES.

A short description of series [1]: BIA 28-6156-106 mass balance recovery, metabolite profiling and PK of 14C-Compound A. Format: in vivo, human. The method, then: (§1) This was a Phase 1, single-dose, mass balance recovery study of ^14C-Compound A in 1 cohort of healthy male subjects, aged 30 to 65 years. A total of 6 subjects received a single oral dose of 60 mg Compound A, containing not more than 3.7 MBq ^14C, under fasted conditions. Objectives included determining the routes and rates of elimination of ^14C-Compound A, identifying the structure of metabolites that account for more than 10% of circulating total radioactivity in plasma and total radioactive dose in urine and feces, exploring the PK of Compound A, evaluating the extent of distribution of TR into blood cells, and gathering additional safety and tolerability information for Compound A.

A short description of series [2]: BIA 28-6156-106: safety and tolerability. Format: in vivo, human. The method, then: as §1

As for `CCCCCO[C@H]1CC[C@H](NC(=O)c2cnn3c(C)cc(C)nc23)CC1` [Compound A, 5,7-dimethyl-N-((1S*,4S)-4-(pentyloxy)cyclohexyl)pyrazolo[1,5-a]pyrimidine-3-carboxamide], the “radioactivity recovered in excreta, mean” value in series [1] (60 mg 14C-Compound A oral, fasted, 288-hour sampling period) is given as “approximately 93%”. Moreover, in series [1] (based on AUC0-inf), the “exposure to Compound A as share of circulating plasma total recovery” value is on record as “approximately 92%”. Moreover, the time to peak (Tmax) (usually the time from dosing to the highest level) in series [1] (male, human, plasma, single oral dose of 60 mg 14C BIA-28, read-out: Median Tmax) stood at 1.5 h. Further, the AUC(0-inf) in series [1] (male, human, plasma, single oral dose of 60 mg 14C BIA-28, read-out: plasma AUC0-inf, geometric mean) worked out at 42100 ng·h/mL. Besides, the AUC(0-t) in series [1] (male, human, plasma, single oral dose of 60 mg 14C BIA-28, read-out: plasma AUC0-last, geometric mean) was 41700 ng·h/mL. The Cmax (usually the highest concentration seen after dosing) in series [1] (male, human, plasma, single oral dose of 60 mg 14C BIA-28, read-out: plasma Cmax, geometric mean) is 1750 ng/mL. Besides, in series [1] (male, human, plasma, single oral dose of 60 mg 14C BIA-28, read-out: plasma half-life, geometric mean (converted)), the half-life was 1290 min. Also, the “vital signs, laboratory safety assessments, ECG parameters” value in series [2] (in vivo) was “no clinically significant safety observations”. Besides, the “relatedness of AEs” value in series [2] (investigator assessment) is on record as “unrelated to the IMP”. In series [2] (single 60 mg dose), the “deaths, SAEs, severe AEs, discontinuations due to AEs” value is recorded as “No deaths, other SAEs, severe AEs, or discontinuations due to AEs”; the “subjects reporting mild headaches” value is listed as 33.3%; the “subjects reporting moderate tinea cruris” value was 16.7%. Further, the “subjects reporting AEs” value in series [2] (single 60 mg dose, 6 subjects) worked out at 50.0%.
